Converted amounts (≈) assume the structure as drawn. The source made the active and inactive calls. The rule behind the calls is not given here.

One experiment relates to A549. The experiment in a line: Cytotoxicity against human A549 cells by MTT assay. It is filed as functional. Particulars: read-out: ED50 (the source's name).
The next experiment deals with HT-29. The experiment can be described thus: Cytotoxicity against human HT-29 cells by MTT assay. Particulars: read-out: ED50 (the source's name). The format is functional.
The next experiment has as its system Human betaherpesvirus 5. The experiment can be described thus: Antiviral activity against Human cytomegalovirus at 50 ug/ml. It is filed as functional, organism-based.
For a further experiment, the system named is P388. The experiment in a line: Cytotoxicity against mouse P388 cells by MTT assay. It is filed as functional. Particulars: read-out: ED50 (the source's name).

As for `CC(=O)CC1OC(=O)C=C1C` (stereo not drawn), the EC50 in the experiment on A549 worked out at 53 µg/mL (≈ 344 µM); in the experiment on HT-29, 51 µg/mL (≈ 331 µM); with P388 it was 56 µg/mL (≈ 363 µM). The result in the experiment with Human betaherpesvirus 5 was inactive.

As to `CC(=O)CC1C=C(C)C(=O)O1` (stereo not drawn), the EC50 in the experiment with A549 turned out to be 56 µg/mL (≈ 363 µM); in the experiment on HT-29 it was 58 µg/mL (≈ 376 µM); in the experiment with P388, 52 µg/mL (≈ 337 µM). The result in the experiment on Human betaherpesvirus 5 was inactive.
